In patent US20060258598A1, “Alpha-keto carbonyl calpain inhibitors” (priority 2003, published 2006):

Assays:
human μ-calpain = molecular target: T1, human μ-calpain (Homo sapiens, UniProt P07384); assay: Enzymatic calpain inhibition assay; format: biochemical; details: substrate Suc-Leu-Tyr-AMC, read-out: Calp I IC50
T1 construct: purchased Calbiochem
T1 sequence (P07384 1-714): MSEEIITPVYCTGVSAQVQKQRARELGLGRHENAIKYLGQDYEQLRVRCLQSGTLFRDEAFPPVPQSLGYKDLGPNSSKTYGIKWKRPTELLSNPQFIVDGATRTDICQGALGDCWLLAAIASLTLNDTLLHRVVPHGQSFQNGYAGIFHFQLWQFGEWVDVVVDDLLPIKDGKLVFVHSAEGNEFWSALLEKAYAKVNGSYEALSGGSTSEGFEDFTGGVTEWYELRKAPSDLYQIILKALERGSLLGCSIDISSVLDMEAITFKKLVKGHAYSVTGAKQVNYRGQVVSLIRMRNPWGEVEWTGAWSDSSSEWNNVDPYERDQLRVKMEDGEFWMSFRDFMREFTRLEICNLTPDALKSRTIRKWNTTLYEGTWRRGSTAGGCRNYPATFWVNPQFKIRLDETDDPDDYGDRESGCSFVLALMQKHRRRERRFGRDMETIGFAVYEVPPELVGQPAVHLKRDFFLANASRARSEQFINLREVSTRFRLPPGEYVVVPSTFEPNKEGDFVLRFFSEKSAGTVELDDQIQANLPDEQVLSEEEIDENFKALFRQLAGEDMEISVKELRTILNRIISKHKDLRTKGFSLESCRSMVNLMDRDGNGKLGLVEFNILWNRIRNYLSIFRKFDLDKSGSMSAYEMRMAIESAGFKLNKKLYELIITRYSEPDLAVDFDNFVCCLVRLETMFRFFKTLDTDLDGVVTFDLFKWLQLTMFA
T1 sequence (P04632 1-268 partner): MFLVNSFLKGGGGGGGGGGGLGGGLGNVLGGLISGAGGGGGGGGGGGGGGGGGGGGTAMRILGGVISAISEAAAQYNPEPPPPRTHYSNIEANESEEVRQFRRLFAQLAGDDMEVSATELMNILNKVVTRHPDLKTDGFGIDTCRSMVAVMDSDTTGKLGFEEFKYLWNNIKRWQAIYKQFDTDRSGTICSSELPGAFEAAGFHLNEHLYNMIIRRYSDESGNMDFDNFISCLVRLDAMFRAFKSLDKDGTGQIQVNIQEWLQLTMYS
Protocol: The Ki value was also determined in some cases. These criteria were used to measure the inhibitory effect of the compounds (I) on calpain I, calpain II and cathepsin B.
Enzymatic Calpain Inhibition Assay
The inhibitory properties of calpain inhibitors are tested in 100 μl of a buffer containing 100 mM imidazole pH 7.5, 5 mM L-Cystein-HCl, 5 mM CaCl2, 250 μM of the calpain fluorogenic substrate Suc-Leu-Tyr-AMC (Sigma) (Sasaki et al., J. Biol. Chem., 1984, 259, 12489-12949) dissolved in 2.5 μl DMSO and 0.5 μg of human μ-calpain (Calbiochem). The inhibitors dissolved in 1 μl DMSO are added to the reaction buffer. The fluorescence of the cleavage product 7-amino-4-methylcoumarin (AMC) is followed in a SPECTRAmax GEMINI XS (Molecular Device) fluorimeter at λex=360 nm and λem=440 nm at 30° C. during 30 min at intervals of 30 sec in 96-well plates (Greiner). The initial reaction velocity at different inhibitor concentrations is plotted against the inhibitor concentration and the IC50 values determined graphically.

[1] = system: Primary fibroblasts from donors with Friedreich Ataxia (FRDA); assay: BSO assay (cell viability under BSO-induced oxidative stress); format: cell-based, human; details: 24 h preincubation, 1 mM BSO; for EC50: Homo sapiens, Fibroblast
Protocol: Primary fibroblasts were derived from donors with molecular diagnosis for Friedreich Ataxia (FRDA) and control donors with no mitochondrial disease. Cell lines were obtained from Coriell Cell Repositories (Camden, N.J.; catalog numbers GM04078, GM08402 and GM08399 respectively). All cell types were diagnosed on the molecular level for intronic […] triplet repeat length of at least 400-450 repeats using a PCR-based method. Experiments were carried out as described in the literature (M. L. Jauslin et al., Human Mol. Genet., 2002, 11, 3055-3063): Cells were seeded in microtiter plates at a density of 4'000 cells per 100 μl in growth medium consisting of 25% (v/v) M199 EBS and 64% (v/v) MEM EBS without phenol red (Bioconcept, Allschwil, Switzerland) supplemented with 10% (v/v) fetal calf serum (PAA Laboratories, Linz, Austria), 100 U/ml penicillin, 100 μg/ml streptomycin (PAA Laboratories, Linz, Austria), 10 μg/ml insulin (Sigma, Buchs, Switzerland), 10 ng/ml EGF (Sigma, Buchs, Switzerland), 10 ng/ml bFGF (PreproTech, Rocky Hill, N.J.) and 2 mM glutamine (Sigma, Buchs, Switzerland). The cells were incubated in the presence of various test compounds for 24 h before addition of L-buthionine-(S,R)-sulfoximine (BSO) to a final concentration of 1 mM. Cell viability was measured after the first signs of toxicity appeared in the BSO-treated controls (typically after 16 to 48 h). The cells were stained for 60 min at room temperature in PBS with 1.2 μM calcein AM and 4 μM ethidium homodimer (Live/Dead assay, Molecular Probes, Eugene, Oreg.). Fluorescence intensity was measured with a Gemini Spectramax XS spectrofluorimeter (Molecular Devices, Sunnyvale, Calif.) using excitation and emission wavelengths of 485 nm and 525 nm respectively.

[2] = system: cellular calpains in C2C12 myoblasts; assay: Calpain inhibition assay in C2C12 myoblasts; format: cell-based; details: 2 h incubation, calcium ionophore Br-A-23187, read-out: Calp I IC50 Myoblast
Protocol: Calpain Inhibition Assay in C2C12 Myoblasts
This assay is aimed at monitoring the ability of the substance to inhibit cellular calpains. C2C12 myoblasts are grown in 96-well plates in growth medium (DMEM, 20% foetal calf serum) until they reach confluency. The growth medium is then replaced by fusion medium (DMEM, 5% horse serum). 24 hours later the fusion medium is replaced by fusion medium containing the test substances dissolved in 1 μl DMSO. After 2 hours of incubation at 37° C. the cells are loaded with the calpain fluorogenic substrate Suc-Leu-Tyr-AMC at 400 μM in 50 μl of a reaction buffer containing 135 mM NaCl; 5 mM KCl; 4 mM CaCl2; 1 mM MgCl2; 10 mM Glucose; 10 mM HEPES pH 7.25 for 20 min at room temperature. The calcium influx, necessary to activate the cellular calpains, is evoked by the addition of 50 μl reaction buffer containing 20 μM of the calcium ionophore Br-A-23187 (Molecular Probes). The fluorescence of the cleavage product AMC is measured as described above during 60 min at 37° C. at intervals of 1 min. The IC50 values are determined as described above. Comparison of the IC50 determined in the enzymatic calpain inhibition assay to the IC50 determined in the C2C12 myoblasts calpain inhibiton assay, allows to evaluate the cellular uptake or the membrane permeability of the substance.

Row | Compound | IC50 (human μ-calpain) [nM] | EC50 [1] [nM] | IC50 [2] [nM] | BSO EC50 [1]
1 | CCNC(=O)C(=O)[C@H](Cc1cccs1)NC(=O)[C@@H](NC(=O)CCCCC1CCSS1)C(C)C (stereo partly drawn) [Example 145] | 100 | 1500 | 6000 | 
2 | CCNC(=O)C(=O)[C@H](Cc1cccs1)NC(=O)[C@H](CC(C)C)NC(=O)CCCCC1CCSS1 (stereo partly drawn) [Example 147] | 40 | 1500 | 2500 | 
3 | CCNC(=O)C(=O)[C@@H](NC(=O)[C@@H](NC(=O)CCCCC1CCSS1)C(C)C)c1ccccc1 (stereo partly drawn) [Example 153] | 400 | 2500 | 2000 | 
4 | CCNC(=O)C(=O)[C@H](Cc1ccc(Cl)cc1)NC(=O)[C@@H](NC(=O)CCCCC1SC[C@@H]2NC(=O)N[C@H]12)C(C)C (stereo partly drawn) [Example 159] | 100 |  | 5000 | inactive
5 | CCNC(=O)C(=O)[C@H](Cc1ccc(OC)cc1)NC(=O)[C@@H](NC(=O)CCCCC1SC[C@@H]2NC(=O)N[C@H]12)C(C)C (stereo partly drawn) [Example 165] | 85 | 60000 | 11000 | 
6 | CCNC(=O)C(=O)[C@H](Cc1ccc(Cl)cc1)NC(=O)[C@@H](NC(=O)CCNC(=O)CCCCC1CCSS1)C(C)C (stereo partly drawn) [Example 172] | 40 | 3000 | 30000 | 
7 | CCNC(=O)C(=O)[C@H](Cc1ccc(Cl)cc1)NC(=O)[C@@H](NC(=O)CCNC(=O)CCCCC1CCS[S+]1[O-])C(C)C (stereo partly drawn) [Example 173] | 200 | 25000 | 40000 | 
8 | CCNC(=O)C(=O)[C@H](Cc1ccc(Cl)cc1)NC(=O)[C@@H](NC(=O)CCCNC(=O)CCCCC1CCSS1)C(C)C (stereo partly drawn) [Example 174] | 20 | 6000 | 2500 | 
9 | CCNC(=O)C(=O)[C@H](Cc1ccc(Cl)cc1)NC(=O)[C@@H](NC(=O)CCCCNC(=O)CCCCC1CCSS1)C(C)C (stereo partly drawn) [Example 175] | 100 | > 100000 | 20000 | 
10 | CCNC(=O)C(=O)[C@H](Cc1ccc(Cl)cc1)NC(=O)[C@H](CC(C)C)NC(=O)CNC(=O)CCCCC1CCSS1 (stereo partly drawn) [Example 176] | 40 | 20000 | 2500 | 
11 | CCNC(=O)C(=O)[C@H](Cc1ccc(Cl)cc1)NC(=O)[C@H](CC(C)C)NC(=O)CNC(=O)CCCCC1CCS[S+]1[O-] (stereo partly drawn) [Example 177] | 9 | 6000 | 2500 | 
12 | CCNC(=O)C(=O)[C@H](Cc1ccc(Br)cc1)NC(=O)[C@@H](NC(=O)CNC(=O)CCCCC1CCS[S+]1[O-])C(C)C (stereo partly drawn) [Example 184] | 100 | 10000 | 5500 | 
13 | CCNC(=O)C(=O)[C@H](Cc1ccc(Br)cc1)NC(=O)[C@H](CC(C)C)NC(=O)CNC(=O)CCCCC1CCSS1 (stereo partly drawn) [Example 186] | 40 | 5000 | 1500 | 
14 | CCNC(=O)C(=O)[C@H](Cc1ccc(Br)cc1)NC(=O)[C@H](CC(C)C)NC(=O)CNC(=O)CCCCC1CCS[S+]1[O-] (stereo partly drawn) [Example 187] | 15 | 20000 | 7500 | 
15 | CCNC(=O)C(=O)[C@H](Cc1ccc(OC)cc1)NC(=O)[C@@H](NC(=O)C1(NC(=O)CCCCC2CCSS2)CC1)C(C)C (stereo partly drawn) [Example 192] | 370 | 1500 | 3200 | 
16 | CCNC(=O)C(=O)[C@H](Cc1ccc(OC)cc1)NC(=O)[C@@H](NC(=O)C1(NC(=O)CCCCC2CCSS2)CCCCC1)C(C)C (stereo partly drawn) [Example 195] | 170 | 5000 | 1500 | 
17 | CCNC(=O)C(=O)[C@H](Cc1ccc(OC)cc1)NC(=O)[C@@H](NC(=O)c1ccc(NC(=O)CCCCC2CCSS2)cc1)C(C)C (stereo partly drawn) [Example 196] | > 1000 | 2000 | 400 | 
18 | CCNC(=O)C(=O)[C@H](Cc1ccc(OC)cc1)NC(=O)[C@@H](NC(=O)c1ccccc1NC(=O)CCCCC1CCSS1)C(C)C (stereo partly drawn) [Example 198] | 26 | 8000 | 1800 | 
19 | CCNC(=O)C(=O)[C@H](Cc1ccc(OC)cc1)NC(=O)[C@@H](NC(=O)c1ccccc1NC(=O)CCCCC1CCS[S+]1[O-])C(C)C (stereo partly drawn) [Example 199] | 26 | 4000 | 1200 | 
20 | CCNC(=O)C(=O)[C@H](Cc1ccccc1)NC(=O)[C@@H](NC(=O)CNC(=O)CCCCC1CCSS1)C(C)C (stereo partly drawn) [Example 207] | 47 | 30000 | 8000 | 
21 | CC(C)[C@H](NC(=O)CNC(=O)CCCCC1CCSS1)C(=O)N[C@@H](Cc1ccccc1)C(=O)C(=O)NCc1ccccc1 (stereo partly drawn) [Example 209] | 60 | > 100000 | 2500 | 
22 | CCNC(=O)C(=O)[C@H](Cc1ccccc1)NC(=O)[C@H](CC(C)C)NC(=O)CNC(=O)CCCCC1CCSS1 (stereo partly drawn) [Example 210] | 40 | 10000 | 4500 | 
23 | CCNC(=O)C(=O)[C@H](Cc1ccccc1)NC(=O)[C@H](CC(C)C)NC(=O)CNC(=O)CCCCC1CCS[S+]1[O-] (stereo partly drawn) [Example 211] | 25 | 4000 | 15000 | 
